Data reported in US12195804B2, “Treatment of squamous cell carcinoma” (Board of Regents, The University of Texas System, priority 2018, dated 2025).

How the values were obtained:
pAKT, pS6 and p4EBP = settings: therapeutic doses; cited from earlier work
HNSCC cell lines [1] = assay: BrdU TUNEL cell death, cell cycle and apoptosis markers after bimiralisib; format: cell-based, human; settings: 5 μM
Text: Apoptotic death in NOTCH1 mutants, but not wt cell lines, was confirmed with cleaved PARP and Caspase 3.

[2] = human, oral; cited from earlier work
[3] = system: UM22A, HN31 and FaDu HNSCC xenografts; assay: Orthotopic tongue xenografts treated with bimiralisib; settings: for tumor growth: 50 mg/kg PO once daily 28 days
HNSCC cell lines [4] = assay: Sensitivity of 69 HNSCC cell lines to bimiralisib; format: cell-based, human
Text: IC50 values were estimated from the best-fit dose-response model selected by calculating residual standard error using the R packages Dose Finding and drc (dose response curve) (Ritz and Streibig 2005, Bornkamp, Bretz et al. 2011). All experiments were done in duplicate and we compared the response between two experiments using concordance correlation coefficient (CCC). The CCC can be computed based on the scaled response as well as original unscaled response. The scaled version should be more relevant since this is actually the data used in IC estimation. […] To identify differentially expressed features between the comparative groups, we applied modified two-sample t-tests using the Limma package. The beta-uniform mixture (BUM) model, described by Pounds and Morris was used to control false discovery rate (FDR) (Pounds and Morris 2003).

[5] = system: pAKT, pS6 and p4EBP1 in HNSCC cell lines; assay: Western blot of PI3K pathway signaling after bimiralisib; format: cell-based, human; settings: four HNSCC cell lines, 2 hours
Method: Cells were lysed and then resolved by SDS PAGE. Western blot analysis was performed using the indicated antibodies.

other protein kinases = settings: cited from earlier work
[6] = administered orally; cited from earlier work
HNSCC cell lines [7] = assay: CellTiter-Glo cell viability assay; format: cell-based, human; settings: for cell viability, NOTCH1MUT and NOTCH1WT cell lines: 0-200 nM
Method: Cell viability assay. […] A CellTiter-Glo luminescent cell viability assay (Promega, Madison, WI) was performed as described previously (Castel et al., 2016; Muellner et al., 2011). Inhibitory concentration (ICs) and area under the curve (AUC) values were calculated using the drexplorer R package with a best-fit dose-response model (Zumsteg et al., 2016). The combination indices were calculated using the Chou-Talalay method (Cal et al., 2017) in CalcuSyn (Biosoft, Cambridge, UK). We tested the reproducibility and robustness of the data generated using three quality control parameters as described previously (Bohnacker et al., 2017). These parameters were the concordance correlation coefficient, location shift, and maximum standard deviation between two biological replicates for three technical and two biological replicates. Based on heuristics from our previous screening studies in lung cancer (Bohnacker et al., 2017), the cut-offs for reproducibility were a concordance correlation coefficient greater than 0.8, a location shift less than 0.9, and a standard deviation less than 0.23 based on the normal mixture fit model. Experiments not satisfying these criteria were repeated. The replicate with the smallest experimental variation measured by the median of standard deviation was chosen as a representative of the replicates, and its IC values served as the final values for subsequent analysis.
Cell lines were classified as sensitive based on IC70 values less than the peak plasma concentration for each drug. To determine if cross-comparison of the PI3K/mTOR inhibitors as a class was feasible, their drug sensitivity patterns were compared with those of three cell cycle kinase inhibitors tested previously (Zhang et al., 2017). The PI3K/mTOR pathway inhibitors clustered separately from the cell cycle inhibitors (FIG. 12C).

HNSCC cell lines [8] = assay: Apoptosis assays (Annexin V/propidium iodide, BrdU TUNEL, cleaved PARP/caspase 3); format: cell-based, human; settings: alone, regardless of NOTCH1 status
Method: FIGS. 7A-7D: PI3K/mTOR signaling inhibition induces cell death in NOTCH1^MUT but not NOTCH1^WT head and neck squamous cell carcinoma (HNSCC) cell lines in vitro. FIG. 7A. Annexin V/propidium iodide or BrDU-terminal deoxynucleotidyl transferase (TdT) dUTP nick-end labeling (TUNEL) assays were used to measure apoptosis in HNSCC cells with the indicated NOTCH1 and PIK3CA mutations, which were treated with 50 nM GSK2126458 (GSK212) for 24 or 48 hours, respectively. Values are the means±standard deviations of three independent experiments. *p<0.05, unpaired two-tailed Student t-test. FIG. 7B. Western blotting of cleaved PARP (Cl-PARP) and cleaved caspase 3 (Cl-Caspase 3) levels in mutant and wild type cells after GSK212 treatment for 48 hours. FIG. 7C. NOTCH1^MUT and NOTCH1^WT HNSCC cells were plated sparsely and treated with GSK212 at the indicated concentrations for 48 hours. At 14-21 days after treatment, the cells were fixed and stained, images were captured using the GelCount Tumour Colony Counter, and colony numbers and the colorimetric intensity of the colonies were determined by measuring the optical density (OD) at 570 nm. Values are the means±standard deviations of three independent experiments. *p<0.001, unpaired two-tailed Student t-test. FIG. 7D. Three NOTCH1^WT lines (black text and bars) and three NOTCH1^MUT lines (red text and bars) were treated with increasing concentrations of GSK212 for 4 hours, and levels of PI3K/mTOR pathway proteins were measured by Western blot analysis.
Western blot analysis. Western blot analysis was performed as described previously (Ferrarotto et al., 2016). In brief, cells were lysed with ice-cold lysis buffer, and the lysates were centrifuged at 20,000×g for 10 minutes at 4° C. Cell samples containing equal amounts of protein were resolved using sodium dodecyl sulfate-polyacrylamide gel electrophoresis, transferred to nitrocellulose membranes, and immunoblotted with different primary antibodies. Protein expression was detected using a horseradish peroxidase-conjugated secondary antibody (Bio-Rad, Hercules, CA) and electrochemiluminescence reagent (Amersham Biosciences, Pittsburg, PA).
Apoptosis and cell cycle assays. To measure apoptosis, we performed terminal deoxynucleotidyl transferase dUTP nick end labeling (TUNEL) staining with an APO-BRDU Kit (BD Biosciences, San Jose, CA) and Annexin V/propidium iodide staining with an FITC Annexin V Apoptosis Detection Kit (BD Pharmingen, San Diego, CA) as described previously (Chandarlapaty et al., 2011). […] Data were acquired with a three-laser, 10-color Gallios flow cytometer (Beckman Coulter, Brea, CA) and analyzed using Kaluza software (Beckman Coulter, Brea, CA). […]

EGFR^MUT lung cancers = settings: EGFRMUT lung cancers; cited from earlier work

Nc1cc(C(F)(F)F)c(-c2nc(N3CCOCC3)nc(N3CCOCC3)n2)cn1 [bimiralisib, 5-(4,6-Dimorpholino-1,3,5-triazin-2-yl)-4-(trifluoromethyl)pyridin-2-amine]
pAKT, pS6 and p4EBP in tumor tissue (pAKT, pS6 and p4EBP): marked decreases
cell death by BrdU-TUNEL (HNSCC cell lines [1]; 48 hours, HNSCC lines with NOTCH1 mutations): significantly increased
cell cycle effect (HNSCC cell lines [1]; HNSCC NOTCH1wt lines): arrested cell lines in G1/S
Tmax [2]: < 2 h
terminal half-life [2]: 51 h
tumor growth ([3]; FaDu (NOTCH1wt)): not affected
tumor growth ([3]; UM22A and HN31 (NOTCH1 inactivating mutations)): significant reduction of tumor growth
body weight ([3]; 50 mg/kg PO once daily, 28 days, mice): without body weight loss
IC50 (HNSCC cell lines [4]; Homo sapiens, 66 of 69 HNSCC cell lines): < 3000 nM
number of cell lines Resistant (HNSCC cell lines [4]; NOTCH1 Mutant cell lines): 3
number of cell lines Sensitive (HNSCC cell lines [4]; NOTCH1 Mutant cell lines): 12
number of cell lines Resistant (HNSCC cell lines [4]; NOTCH1 WT cell lines): 20
number of cell lines Sensitive (HNSCC cell lines [4]; NOTCH1 WT cell lines): 18
pAKT, pS6 and p4EBP1 (Western blot) [5]: decrease
pAKT, pS6 and p4EBP1 (Western blot) ([5]; listed as Bimiralisib): inhibits PI3K pathway signaling
inhibition of other protein kinases (KINOMEscan) (other protein kinases): does not significantly inhibit
crossing of the blood-brain barrier [6]: crosses the blood-brain barrier

CNc1nc(-c2ccc3c(N)n[nH]c3c2)cc(N2C[C@@H](C(=O)NC3CCCCC3)CC[C@H]2C)n1 [GSK2334470]
cell viability (HNSCC cell lines [7]; alone, regardless of NOTCH1 status): little effect
apoptosis (HNSCC cell lines [8]): little effect

NC1(c2ccc(-c3nc4ccn5c(=O)[nH]nc5c4cc3-c3ccccc3)cc2)CCC1 [MK-2206]
cell viability, NOTCH1MUT and NOTCH1WT cell lines (HNSCC cell lines [7]; 72 hours): resistant

Nc1cc(C(F)(F)F)c(-c2cc(N3CCOCC3)nc(N3CCOCC3)n2)cn1 [BKM120]
effectiveness across HNSCC cell lines (IC70) (HNSCC cell lines [7]; 59 HNSCC cell lines, 72 hours): almost universally effective

COc1c(OCCCN2CCOCC2)ccc2c1N=C(NC(=O)c1cnc(N)nc1)N1CCN=C21 [BAY806946]
cell viability, NOTCH1MUT and NOTCH1WT cell lines (HNSCC cell lines [7]; 72 hours): differential effects

CO[C@H]1C[C@@H]2CC[C@@H](C)[C@@](O)(O2)C(=O)C(=O)N2CCCC[C@H]2C(=O)O[C@H]([C@H](C)C[C@@H]2CC[C@@H](OP(C)(C)=O)[C@H](OC)C2)CC(=O)[C@H](C)/C=C(\C)[C@@H](O)[C@@H](OC)C(=O)[C@H](C)C[C@H](C)/C=C/C=C/C=C/1C [ridaforolimus]
cell viability, NOTCH1MUT and NOTCH1WT cell lines (HNSCC cell lines [7]; 72 hours): resistant

C=CC(=O)Nc1cc(Nc2nccc(-c3cn(C)c4ccccc34)n2)c(OC)cc1N(C)CCN(C)C [osimertinib]
response rate (EGFR^MUT lung cancers): about 80%
